Test [1] deals with Cdc7 (pS53MCM2 levels in HCT116 cells). Briefly: Cdc7 Cell Pharmacodynamics Assay Method 1: pS53MCM2 levels in HCT116 cells, 6 hours. The class given is cell-based. Particulars: Homo sapiens, HCT-116, 6 h, read-out: Biomarker Method 1 (pEC50) (converted). The text has this: This protocol describes a method to investigate the inhibition of Cdc7 activity of compounds by measuring pS53MCM2 levels in cells after treatment.
• HCT116 cells (wild type P53 positive) • McCoys 5A media (PAA Laboratories Ltd, E15-022) • 10% FCS (Sera Laboratories International Ltd, EU000F Batch:108005) • 100× L-Glutamine (Invitrogen, 25030-024) • D-PBS without CaCl2 and MgCl2 (Invitrogen, ref 14190-094) • Trypsin/EDTA (Invitrogen 25300-054) • 2% BSA in PBS • Cell Extraction Buffer (Invitrogen FNN0011) • Protease inhibitor cocktail (Sigma P-2714) • PMSF 0.3M stock in DMSO (Sigma P7626) • Antibody-rabbit pMCM2 Ser53 (Bethyl #A300-756A) • Antibody-goat MCM2 (Bethyl #A300-122A) • Antibody-goat Anti Rabbit IgG HRP (Perbio Science UK Ltd 31462) • 1×PBS • FACE Wash buffer (0.02% Triton X100 in 1×PBS) • SuperSignal ELISA Pico Chemiluminescent Substrate (Perbio Science UK Ltd 37070) Method • 72 hours prior to the start of the experiment plate 1×10^6 HCT 116 cells in a 150 cm^2 flask in complete McCoys 5A media (+10% FCS+1× L-glutamine). • Plate 20,000 HCT116 cells per well in standard TC treated 96 well plate in 100 μL complete McCoys 5A media. • Allow cells to settle overnight in incubator set at 37° C. and 5% CO2. • Remove intermediate plate from fridge and place at 37° C. overnight to allow to equilibrate. • Cell treatment: cell assay plate 100 μL; daughter to cell transfer volume 3.33 μL; daughter volume 45 μL; mother plate to daughter volume 5 μL. • Once all cells are treated remove the cells to the incubator and incubate for 6 hours. • Dilute the capture antibody (total MCM2#A300-122A) 1 in 250 in the required volume of PBS (5 mL per assay plate) and add 50 μL to each well of a Hybond plate excluding wells 12E to 12H. In these wells add 50 μL PBS. Seal the plate and incubate at room temperature for a minimum of 2 hours. • Defrost aliquot of Invitrogen Cell Extraction Buffer (FNN0011) on ice and supplement with appropriate volume of both Sigma protease inhibitor cocktail (P-2714) and PMSF (final conc 1 mM from a 1 M stock in DMSO). • After the 6 hour cell treatment time tap out the media from the assay plates and place them in the −70° C. freezer for at least 5 minutes. • Remove plates from freezer and add 20 μL of ice cold complete lysis buffer on ice. Incubate cells for 30 minutes at 4° C. • Add 80 μL per well 2% BSA. • Transfer 80 μL from the lysis plate to the same wells in the capture/ELISA plate. Cover with plate seal and incubate plates overnight at 4° C. • Wash plates with PBS, remove any residual remaining liquid and add 50 μL per well of pMCM2 Ser53 antibody (#A300-756A) diluted 1 in 100 in 2% BSA. Cover plate and incubate at room temperature for 2 hours with gentle shaking. • Wash plates with PBS, remove any residual remaining liquid and Incubate with 50 μL goat anti rabbit antibody (1 in 800 dilution in 2% BSA) for 1 hour at room temperature. • Wash plates with PBS, remove any residual remaining liquid and add 50 μL mixed SuperSignal Pico substrate. • Incubate each plate for 5 minutes at room temperature shielding the plates from direct light (with a cover plate). Read plates with the luminescent detection. Method 2A and 2B

The target in the next test is Cdc7/ASK (Homo sapiens, UniProt O00311). Briefly: Cdc7 Biochemical Assay Method 2: 384 well mobility shift assay (EZ Reader II), MCM2 peptide substrate. Particulars: 12.5 μM ATP, read-out: Biochemical Method 2 (pIC50) (converted). Further details: purchased. How it is done: This protocol describes a method for assaying Cdc7/ASK for activity. The assay is a 384 well mobility shift assay (MSA) run on the EZ Reader II microfluidics plate reader (Caliper LifeSciences), utilising a peptide substrate based on the MCM2 sequence. The assay technology is based on the change in mobility between the peptide substrate and the phosphorylated product. A 10 nL volume of the reaction mixture is sipped onto the microfluidic chip where the substrate and product are separated by electrophoresis and detected via laser-induced fluorescence (488 nm LED). The reaction can be monitored in real-time for kinetic experiments or as an end-point for IC50 determinations. The % conversion of substrate is calculated from peak heights of product (P) and substrate (S) peptides (% conversion=P/(P+S)*100).
Cdc7/ASK, sequence (O00311 whole entry): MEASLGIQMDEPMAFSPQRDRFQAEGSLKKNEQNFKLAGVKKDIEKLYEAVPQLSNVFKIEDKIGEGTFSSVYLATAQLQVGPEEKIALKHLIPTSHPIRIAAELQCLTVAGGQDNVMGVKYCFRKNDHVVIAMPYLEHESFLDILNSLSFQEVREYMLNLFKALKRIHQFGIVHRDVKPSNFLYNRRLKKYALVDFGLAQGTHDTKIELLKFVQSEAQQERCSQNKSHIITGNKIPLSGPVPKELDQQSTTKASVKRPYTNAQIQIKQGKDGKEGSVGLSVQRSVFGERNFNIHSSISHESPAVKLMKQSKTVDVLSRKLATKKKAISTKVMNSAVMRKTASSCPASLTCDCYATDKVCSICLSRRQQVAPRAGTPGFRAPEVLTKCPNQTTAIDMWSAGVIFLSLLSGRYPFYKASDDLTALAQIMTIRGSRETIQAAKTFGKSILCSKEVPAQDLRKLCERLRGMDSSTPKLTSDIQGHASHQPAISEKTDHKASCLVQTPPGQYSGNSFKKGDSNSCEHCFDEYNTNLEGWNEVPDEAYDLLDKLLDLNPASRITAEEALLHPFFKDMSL
Cdc7/ASK, sequence (Q9UBU7 whole entry partner): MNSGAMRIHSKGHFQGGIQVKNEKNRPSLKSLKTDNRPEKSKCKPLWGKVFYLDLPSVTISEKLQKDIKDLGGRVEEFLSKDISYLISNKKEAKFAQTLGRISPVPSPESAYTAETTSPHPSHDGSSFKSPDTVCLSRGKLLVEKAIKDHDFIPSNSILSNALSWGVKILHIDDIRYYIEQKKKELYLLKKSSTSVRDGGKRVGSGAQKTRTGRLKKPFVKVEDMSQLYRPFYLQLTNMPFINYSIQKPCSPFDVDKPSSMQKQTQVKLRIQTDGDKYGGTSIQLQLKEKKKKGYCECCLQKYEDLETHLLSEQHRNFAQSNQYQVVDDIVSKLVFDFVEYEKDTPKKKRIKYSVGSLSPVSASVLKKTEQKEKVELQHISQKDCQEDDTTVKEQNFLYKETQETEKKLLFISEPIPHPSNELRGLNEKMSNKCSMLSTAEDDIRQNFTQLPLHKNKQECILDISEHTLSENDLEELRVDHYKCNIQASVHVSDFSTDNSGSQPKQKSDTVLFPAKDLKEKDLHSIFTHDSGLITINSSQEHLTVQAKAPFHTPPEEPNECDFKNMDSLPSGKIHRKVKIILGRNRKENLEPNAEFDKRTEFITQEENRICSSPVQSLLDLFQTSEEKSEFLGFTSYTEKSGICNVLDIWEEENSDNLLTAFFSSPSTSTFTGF
• 10× Assay Buffer: 200 mM HEPES pH 8, 100 mM MgCl2, 0.1% v/v Triton X-100 and 15 mM DTT. Prepare fresh buffer from 1 M HEPES pH 8, 1 M MgCl2, 1 M DTT and 10% Triton x-100 stocks for each experiment. • Cdc7/ASK is purchased from commercial suppliers and used in the assay at a final assay concentration of 0.847 ng/μL or 9.2 nM. • MCM2 peptide is purchased from commercial suppliers and used in the assay at a final assay concentration of 2.5 μM. • ATP used in the assay at a final assay concentration of 12.5 μM. Methods • 1. Prepare intermediate (daughter) compound plate by transferring 2 μL of compound from the mother plate to 18 μL of 33.3% DMSO in a clear polypropylene plate. • 2. Dry-spot 1 μL of compound from the intermediate compound plate to empty assay plate. • 3. Add 5 μL of 1.694 ng/μL CDC7/ASK working solution to ‘test’ and ‘control’ wells or […] of 2× Assay Buffer to ‘blank’ wells. • 4. Add 4 μL 2.5 μM peptide/12.5 μM ATP working solution to all wells. • 5. Incubate at 37° C. for 1 hour then remove from the incubator and leave for a further 1 hour at room temperature. • 6. Place plate into an EZReader II to read.
Percentage inhibition values were calculated from % of substrate conversion values, using the no compound (DMSO) and no enzyme control values as 0% and 100% inhibition, respectively. IC50 determination was performed with ExcelFit software (IDBS) using curve fit 205. Z′ factors were determined for each plate tested and were all above 0.5.

The target of the next test is Cdc7/Dbf4 (Homo sapiens, UniProt O00311). Briefly: Cdc7 Biochemical Assay Method 3: Cdc7/Dbf4 Enzyme TR-FRET Assay measuring pS40MCM2. Particulars: 1 μM ATP, read-out: Biochemical Method 3 (pIC50) (converted). In short, it runs like this:
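2.5 nM Cdc7/Dbf4 incubated with 100 nM biotinylated MCM2-derived peptide and 1 μM ATP, 120 minutes at 25° C. Phospho-S40 detected by TR-FRET using anti-pS40 Mcm2 antibody, terbium anti-rabbit secondary and streptavidin-Alexa Fluor488.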

Test [2] relates to Cdc7 (pS40MCM2 levels in HCT116 cells). Description: Cdc7 Cell Pharmacodynamics Assay Method 2A: pS40MCM2 levels in HCT116 cells, 6 hours. The class given is cell-based. Particulars: Homo sapiens, HCT-116, read-out: Biomarker Method 2A (pEC50) (converted). The text has this: This protocol describes a method to investigate the inhibition of Cdc7 activity by measuring pS40MCM2 levels in cells, after treatment with compounds.
• HCT116 cells (ATCC, #CCL-247) • McCoys 5A with L-glutamine (Cellgro, #10-050-CV) • 10% FCS (Cellgro, #35-010-CV) • D-PBS without CaCl2 and MgCl2 (Cellgro, #21-031-CV) • Trypsin/EDTA (Cellgro, #25-052-CL) • BSA (Calbiochem, 126593) • Cell Extraction Buffer (Invitrogen FNN0011) • Protease inhibitor cocktail (Sigma P-2714) • PMSF 0.3M stock in DMSO (Sigma P7626) • Antibody-rabbit pMCM2 Ser40 (Abcam, AB133243) • Antibody-goat MCM2 (Bethyl #A300-122A) • Antibody-goat Anti Rabbit IgG HRP (Thermo, 31462) • SuperSignal ELISA Pico Chemiluminescent Substrate (Perbio Science UK Ltd 37069) • 10×PBS (Growcells, MRGF-6236) • Triton X100 (Sigma, P-T8787) • DMSO (Fisher, D128-1) • 2-Propanol (J. T. Baker, 9095-03) Method • Seed 1×10^6 HCT116 cells into each of two 175 cm^2 flask containing 30 mL Cell Growth Media and incubate at 37° C., 5% CO2 for 3 days. • Harvest the cells from one T175 cm^2 flask and count. • Dilute with Cell Growth Media to a cell density of 2×10^5. Dispense 100 μL to each well (20,000 HCT116 cells/well) of TC treated 96-well plate(s). • Allow cells to settle overnight in incubator set at 37° C. and 5% CO2. • Cell treatment: Transfer 0.25 μL/well from the compound plate to the wells of the cell plate(s). This is a 1:400 dilution of compound in the assay. • Once all cells are treated place the cells back to the incubator and incubate for either 6 hours (Method 2A) or 18 hours (Method 2B). • Dilute the capture antibody (total MCM2#A300-122A) 1 in 250 in the required volume of PBS (5 mL per assay plate, plus 5 mL for dead volume) and add 50 μL to each well of a Hybond plate except wells A12 & B12. Seal the plate and incubate at room temperature for a minimum of 2 hours. • Defrost aliquot of Invitrogen Cell Extraction Buffer (FNN0011) on ice and supplement with appropriate volume of both Sigma protease inhibitor cocktail (P-2714) and PMSF (final conc 1 mM from a 1 M stock in DMSO). • After the 6 hour or 18 hour cell treatment time, tap out the media from the assay plates and place them in the −70° C. freezer for at least 5 minutes. • Flick out the remaining liquid in the previously prepared capture Ab plate(s) and add 200 μL 2% BSA per well. Incubate for 1 hour at room temperature. • Remove plates from freezer and add 20 μL of ice cold complete lysis buffer. Incubate cells for 30 minutes at 4° C. • Add 30 μL per well 2% BSA • At the end of the 1 hour incubation, wash the Capture/ELISA plate(s) with Wash Buffer on the BioTek plate washer. • Transfer 40 μL per well of the lysis plate(s) to the same wells in the Capture/ELISA plate. Incubate cells overnight at 4° C. • At the end of the overnight incubation, wash the ELISA plate(s) with Wash Buffer on BioTek plate washer. • Prepare Detection Antibody Buffer and dispense 50 μL to all wells of ELISA plate(s) except wells G1 & H1. Cover plate and incubate at room temperature for 2 hours with gentle shaking. • At the end of the 2 hour incubation, wash the ELISA plate(s) with Wash Buffer on the BioTek plate washer. • Prepare the Conjugated Antibody Buffer and dispense 50 μL to all wells of ELISA plate(s). • Cover the plate and incubate at room temperature for 1 hour with gentle shaking. • At the end of the 1 hour incubation, wash the ELISA plate(s) with Wash Buffer on the BioTek plate washer. • Prepare Substrate Buffer and dispense 50 μL to all wells of ELISA plate(s). • Incubate for a minimum of 10 minutes and read plates on the EnVision 2100 Multilabel Reader (Mirror: Luminescence (404) & Luminescence 700 (212); Measurement Height: 6.5 mm; Measurement Time: 0.2 s). Method 3

Cdc7/Dbf4, sequence (O00311 whole entry): as the sequence (O00311 whole entry) above
Cdc7/Dbf4, sequence (Q9UBU7 whole entry partner): as the sequence (Q9UBU7 whole entry partner) above

On to `CC(F)(F)[C@H]1CN(c2nc(-c3ccnc(F)c3)[nH]c(=O)c2Cl)CCN1` [Compound 315], for which the EC50 in test [1] is 63.1 nM. Also, the IC50 on Cdc7/ASK is 1.51 nM.
On to `N[C@H]1CCN(c2nc(-c3ccnc(F)c3)[nH]c(=O)c2Cl)C1` [Compound 320], for which the results for the IC50 on Cdc7/Dbf4 and on Cdc7/ASK were 0.794 nM and 3.72 nM, respectively. Moreover, the EC50 in test [2] is 316 nM.
For `NC1CCN(c2nc(-c3ccnc(F)c3)[nH]c(=O)c2Cl)CC1` [Compound 321], in test [1], the EC50 is 457 nM. Moreover, the IC50 at Cdc7/ASK is 2.29 nM.
The matching figures for `CC(C)(C)[C@H]1CN(c2nc(-c3ccnc(F)c3)[nH]c(=O)c2Cl)CCN1` [Compound 322]: 42.7 nM and 1.38 nM.
The matching figures for `C[C@H]1COCCN1c1nc(-c2ccncc2)[nH]c(=O)c1Cl` [Compound 365]: 263 nM and 7.08 nM.
The corresponding values for `CC1CNCCN1c1nc(-c2ccncc2)[nH]c(=O)c1Cl` (centres unmarked) [Compound 368] are 15.5 nM and 0.603 nM.
As for `CC[C@H]1CNCCN1c1nc(-c2ccncc2)[nH]c(=O)c1Cl` [Compound 369], in test [1], the EC50 was 891 nM. For the same molecule, the IC50 on Cdc7/ASK was 5.5 nM.
Regarding `CC(C)[C@H]1CNCCN1c1nc(-c2ccncc2)[nH]c(=O)c1Cl` [Compound 370], in test [1], the EC50 is 1020 nM. For the same molecule, on Cdc7/ASK, the IC50 is 12 nM.
Take `CC[C@@H]1CNCCN1c1nc(-c2ccncc2)[nH]c(=O)c1Cl` [Compound 371]: the EC50 in test [1] was 245 nM. Besides, at Cdc7/ASK, the IC50 is 3.09 nM.
The matching figures for `CC(C)[C@H]1CN(c2nc(-c3ccncc3)[nH]c(=O)c2Br)CCN1` [Compound 408, 5-bromo-4-[(3S)-3-isopropylpiperazin-1-yl]-2-(4-pyridyl)-1H-pyrimidin-6-one]: 257 nM and 5.25 nM.
The matching figures for `CC(C)(C)[C@H]1CN(c2nc(-c3ccncc3)[nH]c(=O)c2Br)CCN1` [Compound 410, 5-bromo-4-[(3S)-3-tert-butylpiperazin-1-yl]-2-(4-pyridyl)-1H-pyrimidin-6-one]: 269 nM and 9.12 nM.

For the origin of these results see US10919896B2, “Preparation and uses of pyrimidinone derivatives” (Cancer Research Technology Limited, priority 2016, dated 2021).
